Assay results reported in PMC13492380, “Dissecting Structural and Functional Determinants of Microtubules Stabilization through Guided Chemical Modulation” (Journal of Medicinal Chemistry, 2026).

Test system: Tau-mCherry (Tau 441 isoform) on stabilized MTs from porcine brain tubulin
Assay: Tau-mCherry binding to stabilized MTs (TIRF)
Assay type: biochemical
Settings: for initial Tau envelope coverage / Tau envelope growth velocity: 10 nM Tau-mCherry; for initial Tau envelope coverage: MTs polymerized in the presence of drug; for Tau-mCherry coating of stabilized MTs / Tau envelope coverage of MT length: 40 nM Tau-mCherry
Text: Previous studies in vitro have shown that Tau molecules strongly prefer compacted GDP lattices. Tau binds cooperatively to MT surfaces, resulting in a cohesive layer depending on tau-tau interactions, termed MT envelope, which selectively regulates access to MT lattices, and shields MTs from severing enzymes. − On expanded PTX-MTs, Tau envelope also forms and the lattice can get locally compacted. To further explore how MT lattice structure influences Tau binding, we employed an in vitro reconstitution assay. We deposited stabilized MTs in a flow chamber, and visualized them via interference reflection microscopy (Figure C). We then added 10 nM Tau-mCherry (labeled purified Tau 441 isoform at the C-terminus with mCherry) and monitored its association with MTs using time-lapse TIRF microscopy. After 4 min, we increased Tau concentration to 40 nM, and continued imaging for an additional 4 min. We measured fluorescence intensities along MTs to quantify Tau binding (Movies S16–S27). […] PTXpost-MTs also supported […] faster envelope growth (0.20 ± 0.02 μm/s versus 0.054 ± 0.006 μm/s for PTXpre-MTs, Figure H).
Total Internal Reflection Fluorescence microscopy experiments were performed on an inverted widefield microscope Nikon-Ti2 E, equipped with a motorized XY-stage, a perfect focus system, Apo TIRF 60× oil NA 1.49 objective and PRIME BSY (Teledyne Photometrics) camera. MTs were visualized using Interference Reflection microscopy (IRM) and fluorescently labeled proteins were visualized sequentially by switching between microscope filter cubes for GFP and mCherry channels. The microscopes were controlled using NIS Elements software (Nikon). All experiments were conducted at RT.
Microscopy chambers were prepared from two sandwiched silanized glass coverslips (22 × 22 mm^2 and 18 × 18 mm^2) attached through parafilm strips (heated for 15–20 s at 60 °C and gently pressed together) to form ∼2.5 mm wide parallel flow channels. Prior to the chamber assembly, the coverslips were washed in 3 M KOH, cleaned using Zepto plasma cleaner (Diener electronic) and silanized with hexamethyldisilazane. Flow channels were first incubated with 40 μgml^–1 antibiotin antibodies (Sigma, B3640) in PBS for 10 min, followed by incubation with 1% Pluronic F127 (Sigma-Aldrich, P2443) in PBS for at least 1 h. F127 was washed with BRB80 (80 mM PIPES, 1 mM EGTA, 1 mM MgCl2, pH 6.9).
Porcine brain tubulin was isolated using the high-molarity PIPES procedure then mixed with Biotin labeled tubulin (Cytoskeleton Inc., T333P) in 1:49 ratio. All MTs were polymerized using 2% biotin-labeled tubulin. […] Polymerized MTs were centrifuged for 30 min at 18,000g in a Microfuge 18 Centrifuge (Beckman Coulter’s). […] Drug stabilized preassembly MTs (polymerized in the presence of drugs and GTP, stored and imaged in presence of drug) were polymerized from 4 mg mL^–1 biotinylated tubulin for 30 min at 37 °C in BRB80 supplemented with 4 mM MgCl2, 40 μM drug of interest in 5% DMSO, and 1 mM GTP. Polymerized MTs were centrifuged for 30 min at 18,000g in a Microfuge 18 Centrifuge (Beckman Coulter’s). […] GMPCPP stabilized MTs (GMPCPP polymerized) were assembled from 4 mg mL^–1 biotinylated tubulin for 2 h at 37 °C in BRB80 supplemented with 1 mM MgCl2 and 1 mM GMPCPP (Jena Bioscience, NU-405). Polymerized MTs were centrifuged for 30 min at 18,000g in a Microfuge 18 Centrifuge (Beckman Coulter’s) and pellets were resuspended and kept in BRB80.
Stabilized MTs were flushed into the channel and incubated for 15–30 s to allow for surface attachment. Unbound MTs were removed by washing with BRB80 supplemented with 10 μM of drug. Prior the experiment, the solution was exchanged by motility buffer, MB (BRB80 containing 10 mM DTT, 20 mM D-glucose, 0.1% Tween-20, 0.5 mg/mL casein, 1 mM Mg-ATP, 0.02 mg/mL catalase, 0.22 mg/mL glucose oxidase, 10 μM drug). Subsequently, a solution containing either 1.08 nM Kif5b-EGFP or 10/40 nM mCherry-Tau in MB was introduced into the chamber. […]

[1] = MTs polymerized in the presence of drug (preassembly)
[2] = MTs stabilized with PTX after polymerization (PTXpost)

Row | SMILES | initial Tau envelope coverage [%] | Tau envelope growth velocity [1] [μm/s] | Tau-mCherry coating of stabilized MTs | Tau envelope growth velocity [2] [μm/s] | Tau envelope coverage of MT length (MTs assembled in the presence of PTX (PTXpre)) [%] | Tau envelope coverage of MT length [2]
1 | CC(=O)OC1C(=O)C2(C)C(OC(=O)CCCCC(=O)OC3CCc4ccccc43)CC3OCC3(OC(C)=O)C2C(OC(=O)c2ccccc2)C2(O)CC(OC(=O)C(O)C(NC(=O)c3ccccc3)c3ccccc3)C(C)=C1C2(C)C (stereo not shown) [1a, 7-O-(6″-O-(2‴,3‴-Dihydroinden-1‴-yl)hexanedioyl) Paclitaxel] | 40 | 1.5 ± 0.1 | fully coated | – | – | –
2 | COc1ccc2c(c1)CC(NC(=O)CCCCCCCC(=O)OC1CC3OCC3(OC(C)=O)C3C(OC(=O)c4ccccc4)C4(O)CC(OC(=O)C(O)C(NC(=O)c5ccccc5)c5ccccc5)C(C)=C(C(OC(C)=O)C(=O)C13C)C4(C)C)CC2 [1b, 7-O-((S)-9″-(7‴-Methoxy-1‴,2‴,3‴,4‴-tetrahydronaphthalen-2‴-yl)amino) −9″-oxononanoyl) Paclitaxel] | 20 | 0.46 ± 0.05 | fully coated | – | – | –
3 | CC(=O)O[C@H]1C(=O)[C@]2(C)[C@@H](OC(=O)[C@H](C)NC(=O)c3ccc(-c4c5cc(F)c(=O)cc-5oc5cc(O)c(F)cc45)c(C(=O)O)c3)C[C@H]3OC[C@@]3(OC(C)=O)[C@H]2[C@H](OC(=O)c2ccccc2)[C@]2(O)C[C@H](OC(=O)[C@H](O)[C@@H](NC(=O)c3ccccc3)c3ccccc3)C(C)=C1C2(C)C [FTX2, Flutax2] | 60 | 1.37 ± 0.09 | fully coated | – | – | –
4 | CC(=O)O[C@H]1C(=O)[C@@]2(C)[C@H]([C@H](OC(=O)c3ccccc3)[C@]3(O)C[C@H](OC(=O)[C@H](O)[C@@H](NC(=O)c4ccccc4)c4ccccc4)C(C)=C1C3(C)C)[C@]1(OC(C)=O)CO[C@@H]1C[C@@H]2O [PTX, Paclitaxel] | – | 0.054 ± 0.006 | – | 0.20 ± 0.02 | 30 | up to 60%
